Bounds are passed on as bounds.

As usually defined, the IC50 is the concentration at which inhibition is half-maximal. A lower IC50 goes with higher potency.

Chain of EGFR (human) (P00533 whole entry, looked up): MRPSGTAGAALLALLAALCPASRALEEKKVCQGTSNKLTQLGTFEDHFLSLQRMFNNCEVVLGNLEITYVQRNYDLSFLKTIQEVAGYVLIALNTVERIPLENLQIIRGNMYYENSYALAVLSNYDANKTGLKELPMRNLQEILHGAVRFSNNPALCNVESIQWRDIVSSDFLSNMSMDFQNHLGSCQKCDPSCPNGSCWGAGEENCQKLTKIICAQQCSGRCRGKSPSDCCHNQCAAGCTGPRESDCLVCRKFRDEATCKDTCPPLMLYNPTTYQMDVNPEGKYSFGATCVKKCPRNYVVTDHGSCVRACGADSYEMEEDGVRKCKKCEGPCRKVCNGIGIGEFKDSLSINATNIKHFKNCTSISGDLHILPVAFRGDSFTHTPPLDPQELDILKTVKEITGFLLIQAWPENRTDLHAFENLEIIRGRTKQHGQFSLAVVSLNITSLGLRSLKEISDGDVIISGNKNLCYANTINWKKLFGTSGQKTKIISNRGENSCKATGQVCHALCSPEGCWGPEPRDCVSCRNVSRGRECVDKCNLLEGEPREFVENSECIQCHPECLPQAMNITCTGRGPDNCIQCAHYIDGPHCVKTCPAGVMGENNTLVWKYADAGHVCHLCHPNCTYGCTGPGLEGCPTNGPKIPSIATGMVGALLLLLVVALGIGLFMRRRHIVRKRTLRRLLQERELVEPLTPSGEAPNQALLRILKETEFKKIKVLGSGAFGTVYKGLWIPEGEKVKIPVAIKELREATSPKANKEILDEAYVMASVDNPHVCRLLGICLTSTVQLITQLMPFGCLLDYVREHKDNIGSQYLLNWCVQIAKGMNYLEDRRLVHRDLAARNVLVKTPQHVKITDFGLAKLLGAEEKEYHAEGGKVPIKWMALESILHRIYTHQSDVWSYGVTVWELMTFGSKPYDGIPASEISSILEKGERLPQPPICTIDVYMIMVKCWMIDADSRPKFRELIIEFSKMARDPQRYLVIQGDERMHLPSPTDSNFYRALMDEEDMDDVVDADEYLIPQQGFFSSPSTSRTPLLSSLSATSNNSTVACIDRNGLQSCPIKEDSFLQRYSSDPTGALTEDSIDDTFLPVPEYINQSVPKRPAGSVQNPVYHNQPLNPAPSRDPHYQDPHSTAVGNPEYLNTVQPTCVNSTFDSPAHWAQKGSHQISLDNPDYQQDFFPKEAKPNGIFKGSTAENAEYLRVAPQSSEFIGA

This assay concerns the target EGFR (human) (UniProt P00533).
For `COc1cc2ncnc(Nc3ccc(F)c(Cl)c3)c2cc1OCCOc1ccc(CC(=O)NO)cc1`, the concentration for half-maximal inhibition (IC50) was at most 100 nM. The value for `C#Cc1cccc(Nc2ncnc3ccc(OCC(=O)NO)cc23)c1` was at most 100 nM; that for `COc1cc2ncnc(Nc3ccc(F)c(Cl)c3)c2cc1NC(=O)Nc1ccc(C(=O)NO)cc1` was at most 100 nM.

Compound `O=C(COc1ccc2ncnc(Nc3ccc(F)c(Cl)c3)c2c1)NO` yielded a 50% inhibitory concentration (IC50) of at most 100 nM. The same measure for `COc1cc2ncnc(Nc3ccc(F)c(Cl)c3)c2cc1OCCC(=O)NO`: at most 100 nM; for `COc1cc2ncnc(NCc3ccc(F)c(Cl)c3)c2cc1OCCCCCCC(=O)NO`: at most 100 nM; for `C#Cc1cccc(Nc2ncnc3cc(OCCOC)c(OCCCCCCC(=O)NO)cc23)c1`: at most 100 nM.

For `COc1cc2ncnc(Nc3ccc(F)c(Cl)c3)c2cc1CCCCCC(=O)NO`, the half-inhibitory concentration (IC50) is at most 100 nM.

Take `COc1cc2ncnc(Nc3ccc(F)c(Cl)c3)c2cc1OCC(=O)NO`: the half-inhibitory concentration (IC50) was at most 100 nM.

The compound `COc1cc2ncnc(N[C@H](C)c3ccccc3)c2cc1OCCCCCC(=O)NO` gave a concentration for half-maximal inhibition (IC50) of at most 100 nM. The same measure for `COc1cc2ncnc(NCc3ccccc3)c2cc1OCCCCCCC(=O)NO`: at most 100 nM; for `COc1cc2ncnc(Nc3ccc(F)c(Cl)c3)c2cc1OCCOc1ccc(C=CC(=O)NO)cc1`: at most 100 nM.

Turning to `COc1cc2ncnc(Nc3ccc(F)c(Cl)c3)c2cc1SCCCCCCC(=O)NO`, the IC50 is at most 100 nM. The value for `COc1cc2ncnc(Nc3ccc(F)c(Cl)c3)c2cc1OCCOc1ccc(C(=O)NO)cc1` was at most 100 nM; that for `C#Cc1cccc(Nc2ncnc3cc(OC)c(OCCCCCC(=O)NO)cc23)c1` was at most 100 nM; that for `COc1cc2ncnc(Nc3ccc(F)c(Cl)c3)c2cc1NC(=O)CCCC(=O)NO` was at most 100 nM.

The compound `COCCOc1cc2ncnc(Nc3ccc(F)c(Cl)c3)c2cc1NC(=O)CCCCC(=O)NO` had a half-maximal inhibitory concentration (IC50) of at most 100 nM.

Compound `COc1cc2ncnc(Nc3ccc(F)c(Cl)c3)c2cc1OCCCCCCN(O)C(N)=O` showed a half-inhibitory concentration (IC50) of at most 100 nM. In the case of `COc1cc2ncnc(Nc3ccc(F)c(Cl)c3)c2cc1OCCCC(=O)NO`, the IC50 was at most 100 nM. The value for `COc1cc2ncnc(Nc3ccc(F)c(Cl)c3)c2cc1OCCCCCCC(=O)NO` was at most 100 nM; that for `O=C(CCOc1ccc2ncnc(Nc3ccc(F)c(Cl)c3)c2c1)NO` was at most 100 nM; that for `O=C(CCCCOc1ccc2ncnc(Nc3ccc(F)c(Cl)c3)c2c1)NO` was at most 100 nM. The same measure for `C#Cc1cccc(Nc2ncnc3ccc(OCCCC(=O)NO)cc23)c1`: 100 to 1000 nM; for `C#Cc1cccc(Nc2ncnc3cc(OCCCCCCC(=O)NO)c(OCCOC)cc23)c1`: at most 100 nM. Take `COCCOc1cc2c(Nc3ccc(F)c(Cl)c3)ncnc2cc1OCCCCCCC(=O)NO`: the IC50 was at most 100 nM. The same measure for `C[C@@H](Nc1ncnc2ccc(OCCCCCC(=O)NO)cc12)c1ccccc1`: 100 to 1000 nM; for `C#Cc1cc(Nc2ncnc3cc(OCCOC)c(OCCCCCCC(=O)NO)cc23)ccc1F`: at most 100 nM; for `C#Cc1cccc(Nc2ncnc3cc(OC)c(NC(=O)CCCCC(=O)NO)cc23)c1`: at most 100 nM.

`COc1cc2ncnc(Nc3ccc(OCc4cccc(F)c4)c(Cl)c3)c2cc1OCCCCCCC(=O)NO` displayed an IC50 of at most 100 nM. The same measure for `O=C(CCCCCCOc1ccc2ncnc(Nc3ccc(OCc4cccc(F)c4)c(Cl)c3)c2c1)NO`: at most 100 nM. The value for `COc1cc2ncnc(Nc3ccc(F)c(Cl)c3)c2cc1OCCCCCC(=O)NO` was at most 100 nM; that for `Nc1cc(Br)ccc1NC(=O)COc1ccc2ncnc(Nc3ccc(F)c(Cl)c3)c2c1` was 100 to 1000 nM; that for `COc1cc2ncnc(Nc3ccc(F)c(Cl)c3)c2cc1NC(=O)CCCCCCC(=O)NO` was at most 100 nM. The value for `C#Cc1cccc(Nc2ncnc3cc(OCCCCCCC(=O)NO)c(OC)cc23)c1` was at most 100 nM; that for `COCCOc1cc2ncnc(Nc3ccc(OCc4cccc(F)c4)c(Cl)c3)c2cc1OCCCCCCC(=O)NO` was at most 100 nM. In turn, `C#Cc1cccc(Nc2ncnc3cc(OC)c(NC(=O)CCCC(=O)NO)cc23)c1` displayed a half-inhibitory concentration (IC50) of at most 100 nM. The value for `O=C(CCCCCNCc1ccc(-c2ccc3ncnc(Nc4ccc(OCc5cccc(F)c5)c(Cl)c4)c3c2)o1)NO` was at most 100 nM.

`COc1cc2ncnc(NCCc3ccccc3)c2cc1OCCCCCCC(=O)NO` returned an IC50 of 100 to 1000 nM. The same measure for `C#Cc1cccc(Nc2ncnc3cc(O)c(OCCCCCCC(=O)NO)cc23)c1`: at most 100 nM; for `COc1cc2ncnc(Nc3ccc(F)c(Cl)c3)c2cc1OCCCCCCC(=O)N(C)O`: at most 100 nM; for `COc1cc2ncnc(N[C@H](C)c3ccc(Cl)cc3)c2cc1OCCCCCCC(=O)NO`: 100 to 1000 nM. The value for `C#Cc1cccc(Nc2ncnc3cc(OC)c(OCCCC(=O)NO)cc23)c1` was at most 100 nM.

Turning to `C#Cc1cc(Nc2ncnc3cc(OC)c(OCCCCCCC(=O)NO)cc23)ccc1O`, the half-maximal inhibitory concentration (IC50) was at most 100 nM. The value for `C#Cc1cccc(Nc2ncnc3ccc(OCCCCCCC(=O)NO)cc23)c1` was 100 to 1000 nM. The same measure for `O=C(CCCCCCCNCc1ccc(-c2ccc3ncnc(Nc4ccc(OCc5cccc(F)c5)c(Cl)c4)c3c2)o1)NO`: at most 100 nM; for `C#Cc1cc(Nc2ncnc3cc(OC)c(OCCCCCCC(=O)NO)cc23)ccc1F`: at most 100 nM; for `C#Cc1cccc(Nc2ncnc3cc(OC)c(NC(=O)CCCCCCC(=O)NO)cc23)c1`: at most 100 nM. The value for `COc1cc2ncnc(Nc3ccc(F)c(Cl)c3)c2cc1OCCCCC(=O)NO` was at most 100 nM. `O=C(CCCCCOc1ccc2ncnc(Nc3ccc(F)c(Cl)c3)c2c1)NO`: the IC50 was at most 100 nM.

`COc1cc2ncnc(Nc3ccc(F)c(Cl)c3)c2cc1SCCCCC(=O)NO` displayed an IC50 of at most 100 nM.

`COc1cc2ncnc(NCc3cccc(Br)c3)c2cc1OCCCCCCC(=O)NO` yielded a concentration for half-maximal inhibition (IC50) of 100 to 1000 nM. The same measure for `C#Cc1cccc(Nc2ncnc3cc(OC)c(OCCC(=O)NO)cc23)c1`: at most 100 nM; for `C#Cc1cccc(Nc2ncnc3cc(OC)c(OCC(=O)NO)cc23)c1`: at most 100 nM; for `COc1cc2ncnc(NCc3ccc(F)c(F)c3)c2cc1OCCCCCCC(=O)NO`: 100 to 1000 nM. The value for `C#Cc1cccc(Nc2ncnc3ccc(OCCCCCC(=O)NO)cc23)c1` was 100 to 1000 nM. The value for `COc1ccc([C@@H](C)Nc2ncnc3cc(OC)c(OCCCCCCC(=O)NO)cc23)cc1` was at least 10000 nM; that for `C#Cc1cccc(Nc2ncnc3ccc(OCCCCC(=O)NO)cc23)c1` was at most 100 nM; that for `O=C(CCCCCCOc1ccc2ncnc(Nc3ccc(F)c(Cl)c3)c2c1)NO` was at most 100 nM.

Turning to `COCCOc1cc2ncnc(Nc3ccc(F)c(Cl)c3)c2cc1OCCCCCCC(=O)NO`, the half-maximal inhibitory concentration (IC50) is at most 100 nM. The same measure for `C[C@@H](Nc1ncnc2ccc(OCCCCCCC(=O)NO)cc12)c1ccccc1`: 100 to 1000 nM; for `COCCOc1cc2ncnc(Nc3ccc(F)c(Cl)c3)c2cc1NC(=O)CCCC(=O)NO`: at most 100 nM.

The compound `COc1cc2ncnc(N[C@H](C)c3ccc(F)cc3)c2cc1OCCCCCCC(=O)NO` came in with an IC50 of 100 to 1000 nM.

As for `COCCOc1cc2ncnc(Nc3ccc(F)c(Cl)c3)c2cc1NC(=O)CCCCCCC(=O)NO`, the concentration for half-maximal inhibition (IC50) was at most 100 nM.
